Here are results for four molecules from publication PMC5564600 (Oncotarget, 2017).

SMILES strings stand for the structures. Read-outs that look alike come from different tables or passages of the source.

What all share (experiment): biochemical
Common to all, as to assay type: binding

For assay [1], the target named is T1, panel of 442 kinases (Homo sapiens, UniProt P29317).
T1 construct: purchased Ambit Biosciences (scanMAXX KINOMEscan)
The conditions noted are these: EPHA2; for remaining activity at 1 µM: read-out: % of control at 1 µM.

Assay [2] addresses T2, panel of 442 kinases (Homo sapiens, UniProt Q9H422).
T2 construct: purchased Ambit Biosciences (scanMAXX KINOMEscan)
As to conditions: kinase HIPK3; for remaining activity at 1 µM: read-out: % of control at 1 µM.

For assay [3], the target named is T3, panel of 442 kinases (Homo sapiens, UniProt Q8NI60).
T3 construct: purchased Ambit Biosciences (scanMAXX KINOMEscan)
The conditions noted are these: ADCK3; for remaining activity at 1 µM: read-out: % of control at 1 µM.

The target of assay [4] is T4, panel of 442 kinases (Homo sapiens, UniProt Q9UEW8).
T4 construct: purchased Ambit Biosciences (scanMAXX KINOMEscan)
As to conditions: kinase STK39; for remaining activity at 1 µM: read-out: STK39 (% of control at 1 µM).

Assay [5] addresses T5, panel of 442 kinases (Homo sapiens, UniProt Q04759).
T5 construct: purchased Ambit Biosciences (scanMAXX KINOMEscan)
As to conditions: kinase PRKCQ; for remaining activity at 1 µM: read-out: PRKCQ (% of control at 1 µM).

Assay [6] concerns the target T6, panel of 442 kinases (Homo sapiens, UniProt P00533, DEL746-750).
T6 construct: purchased Ambit Biosciences (scanMAXX KINOMEscan)
The conditions noted are these: EGFR(E746-A750del); for remaining activity at 1 µM: read-out: % of control at 1 µM.

Assay [7] deals with T7, panel of 442 kinases (Homo sapiens, UniProt P54764).
T7 construct: purchased Ambit Biosciences (scanMAXX KINOMEscan)
The conditions noted are these: EPHA4; for remaining activity at 1 µM: read-out: % of control at 1 µM.

For assay [8], the target named is T8, panel of 442 kinases (Homo sapiens, UniProt Q9Y2H9).
T8 construct: purchased Ambit Biosciences (scanMAXX KINOMEscan)
As to conditions: kinase MAST1; for remaining activity at 1 µM: read-out: % of control at 1 µM.

Assay [9] has as its target T9, panel of 442 kinases (Homo sapiens, UniProt P06239).
T9 construct: purchased Ambit Biosciences (scanMAXX KINOMEscan)
The conditions noted are these: kinase LCK; for remaining activity at 1 µM: read-out: % of control at 1 µM.

The target in assay [10] is T10, panel of 442 kinases (Homo sapiens, UniProt Q9Y2K2).
T10 construct: purchased Ambit Biosciences (scanMAXX KINOMEscan)
As to conditions: kinase QSK; for remaining activity at 1 µM: read-out: QSK (% of control at 1 µM).

Assay [11] deals with T11, panel of 442 kinases (Homo sapiens, UniProt P48730).
T11 construct: purchased Ambit Biosciences (scanMAXX KINOMEscan)
As to conditions: CSNK1D; for remaining activity at 1 µM: read-out: % of control at 1 µM.

The target in assay [12] is T12, panel of 442 kinases (Homo sapiens, UniProt P04629).
T12 construct: purchased Ambit Biosciences (scanMAXX KINOMEscan)
The conditions noted are these: kinase TRKA; for remaining activity at 1 µM: read-out: TRKA (% of control at 1 µM).

Assay [13] addresses T13, panel of 442 kinases (Homo sapiens, UniProt P00519).
T13 construct: purchased Ambit Biosciences (scanMAXX KINOMEscan)
As to conditions: for remaining activity at 1 µM: read-out: % of control at 1 µM; for remaining activity at 10 µM: read-out: % of control at 10 µM.

For assay [14], the target named is T14, panel of 442 kinases (Homo sapiens, UniProt P11802).
T14 construct: purchased Ambit Biosciences (scanMAXX KINOMEscan)
The conditions noted are these: for remaining activity at 1 µM: read-out: % of control at 1 µM; for remaining activity at 10 µM: read-out: % of control at 10 µM.

In assay [15] the target is T15, panel of 442 kinases (Homo sapiens, UniProt O14578).
T15 construct: purchased Ambit Biosciences (scanMAXX KINOMEscan)
The conditions noted are these: CIT; for remaining activity at 1 µM: read-out: % of control at 1 µM.

Assay [16] concerns the target T16, panel of 442 kinases (Homo sapiens, UniProt O75385).
T16 construct: purchased Ambit Biosciences (scanMAXX KINOMEscan)
T16 sequence (O75385 1-1050): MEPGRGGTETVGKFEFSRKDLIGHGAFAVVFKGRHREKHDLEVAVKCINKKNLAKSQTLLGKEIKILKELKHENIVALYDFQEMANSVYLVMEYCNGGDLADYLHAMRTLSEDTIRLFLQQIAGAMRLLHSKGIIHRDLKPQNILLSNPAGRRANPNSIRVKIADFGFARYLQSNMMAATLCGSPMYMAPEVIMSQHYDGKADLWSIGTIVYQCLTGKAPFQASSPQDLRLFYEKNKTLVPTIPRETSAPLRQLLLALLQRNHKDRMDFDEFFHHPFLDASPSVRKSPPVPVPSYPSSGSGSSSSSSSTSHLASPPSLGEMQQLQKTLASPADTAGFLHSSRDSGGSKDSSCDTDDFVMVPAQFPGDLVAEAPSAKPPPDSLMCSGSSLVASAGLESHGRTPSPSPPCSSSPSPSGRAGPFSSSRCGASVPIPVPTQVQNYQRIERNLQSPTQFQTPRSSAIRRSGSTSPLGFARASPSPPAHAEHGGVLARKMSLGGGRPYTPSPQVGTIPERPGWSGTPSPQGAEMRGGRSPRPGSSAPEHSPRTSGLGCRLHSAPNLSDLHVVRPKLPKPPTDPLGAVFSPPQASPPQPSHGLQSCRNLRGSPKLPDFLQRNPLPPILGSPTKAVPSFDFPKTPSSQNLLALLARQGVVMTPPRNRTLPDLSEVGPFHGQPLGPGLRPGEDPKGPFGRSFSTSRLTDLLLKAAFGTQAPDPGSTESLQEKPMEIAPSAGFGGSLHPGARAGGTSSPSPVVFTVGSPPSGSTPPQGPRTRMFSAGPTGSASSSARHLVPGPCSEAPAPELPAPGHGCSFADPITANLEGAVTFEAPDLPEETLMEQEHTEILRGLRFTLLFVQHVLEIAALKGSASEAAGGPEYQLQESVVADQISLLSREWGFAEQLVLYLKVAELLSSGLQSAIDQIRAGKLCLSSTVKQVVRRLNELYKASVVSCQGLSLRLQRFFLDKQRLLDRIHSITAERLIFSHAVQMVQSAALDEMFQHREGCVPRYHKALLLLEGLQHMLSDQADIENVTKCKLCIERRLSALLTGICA
The conditions noted are these: kinase ULK1; for remaining activity at 1 µM: read-out: ULK1 (% of control at 1 µM).

Assay [17] concerns the target T17, panel of 442 kinases (Homo sapiens, UniProt P42684).
T17 construct: purchased Ambit Biosciences (scanMAXX KINOMEscan)
As to conditions: ABL2; for remaining activity at 1 µM: read-out: % of control at 1 µM.

Setting [18] is: 10 µM, read-out: % of control at 10 µM.

T5 sequence (Q04759 whole entry): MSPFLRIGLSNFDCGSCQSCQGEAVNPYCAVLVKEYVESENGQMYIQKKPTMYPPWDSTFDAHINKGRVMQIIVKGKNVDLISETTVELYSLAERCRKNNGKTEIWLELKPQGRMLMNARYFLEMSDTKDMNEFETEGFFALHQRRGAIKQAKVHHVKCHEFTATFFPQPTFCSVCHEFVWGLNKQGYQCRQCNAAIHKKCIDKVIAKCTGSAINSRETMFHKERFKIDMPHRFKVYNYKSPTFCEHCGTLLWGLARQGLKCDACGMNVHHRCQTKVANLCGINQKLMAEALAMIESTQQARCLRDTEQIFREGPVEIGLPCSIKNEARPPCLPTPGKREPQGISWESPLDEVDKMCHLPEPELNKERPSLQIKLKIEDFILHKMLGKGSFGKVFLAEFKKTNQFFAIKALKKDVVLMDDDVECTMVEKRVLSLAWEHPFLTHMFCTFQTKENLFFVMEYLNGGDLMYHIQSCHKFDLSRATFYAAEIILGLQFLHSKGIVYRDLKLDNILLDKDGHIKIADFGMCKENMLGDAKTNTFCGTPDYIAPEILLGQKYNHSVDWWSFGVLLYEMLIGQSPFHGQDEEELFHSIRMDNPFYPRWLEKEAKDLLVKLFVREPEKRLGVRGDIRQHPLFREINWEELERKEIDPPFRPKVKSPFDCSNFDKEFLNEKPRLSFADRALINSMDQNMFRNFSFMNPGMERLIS
T10 sequence (Q9Y2K2 whole entry): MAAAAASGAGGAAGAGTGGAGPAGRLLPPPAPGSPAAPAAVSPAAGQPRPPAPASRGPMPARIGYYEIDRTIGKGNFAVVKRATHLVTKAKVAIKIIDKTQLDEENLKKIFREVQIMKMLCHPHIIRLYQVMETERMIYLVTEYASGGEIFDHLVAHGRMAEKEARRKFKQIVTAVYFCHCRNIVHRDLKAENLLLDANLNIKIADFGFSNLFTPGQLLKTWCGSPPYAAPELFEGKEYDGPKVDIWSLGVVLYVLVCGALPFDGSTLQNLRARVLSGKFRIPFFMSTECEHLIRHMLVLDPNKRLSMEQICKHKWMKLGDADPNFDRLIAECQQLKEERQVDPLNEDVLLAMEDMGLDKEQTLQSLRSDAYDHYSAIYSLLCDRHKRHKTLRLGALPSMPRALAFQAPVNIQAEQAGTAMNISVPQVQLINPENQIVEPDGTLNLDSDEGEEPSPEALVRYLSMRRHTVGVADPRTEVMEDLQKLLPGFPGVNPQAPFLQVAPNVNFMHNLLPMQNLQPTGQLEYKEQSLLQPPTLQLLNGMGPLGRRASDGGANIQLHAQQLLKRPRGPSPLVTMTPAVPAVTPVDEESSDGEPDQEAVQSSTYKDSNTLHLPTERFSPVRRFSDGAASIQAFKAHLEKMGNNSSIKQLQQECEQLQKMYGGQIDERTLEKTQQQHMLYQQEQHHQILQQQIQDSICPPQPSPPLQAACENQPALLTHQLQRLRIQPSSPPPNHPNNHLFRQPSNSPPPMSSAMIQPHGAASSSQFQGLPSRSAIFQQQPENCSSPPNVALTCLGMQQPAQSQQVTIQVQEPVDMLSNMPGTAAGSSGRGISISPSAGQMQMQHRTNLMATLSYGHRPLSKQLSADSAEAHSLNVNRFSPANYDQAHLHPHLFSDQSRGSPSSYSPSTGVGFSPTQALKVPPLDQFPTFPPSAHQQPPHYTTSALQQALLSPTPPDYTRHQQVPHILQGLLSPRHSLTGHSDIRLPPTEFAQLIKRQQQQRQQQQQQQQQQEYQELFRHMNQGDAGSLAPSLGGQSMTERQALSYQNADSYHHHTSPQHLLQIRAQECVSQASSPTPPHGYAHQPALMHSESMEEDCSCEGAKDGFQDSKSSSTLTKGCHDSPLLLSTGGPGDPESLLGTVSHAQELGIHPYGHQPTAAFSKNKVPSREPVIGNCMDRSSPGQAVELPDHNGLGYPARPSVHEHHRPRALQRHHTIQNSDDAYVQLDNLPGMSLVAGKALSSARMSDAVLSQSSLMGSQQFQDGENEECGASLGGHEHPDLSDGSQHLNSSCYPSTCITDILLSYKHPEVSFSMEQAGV
T11 sequence (P48730 whole entry): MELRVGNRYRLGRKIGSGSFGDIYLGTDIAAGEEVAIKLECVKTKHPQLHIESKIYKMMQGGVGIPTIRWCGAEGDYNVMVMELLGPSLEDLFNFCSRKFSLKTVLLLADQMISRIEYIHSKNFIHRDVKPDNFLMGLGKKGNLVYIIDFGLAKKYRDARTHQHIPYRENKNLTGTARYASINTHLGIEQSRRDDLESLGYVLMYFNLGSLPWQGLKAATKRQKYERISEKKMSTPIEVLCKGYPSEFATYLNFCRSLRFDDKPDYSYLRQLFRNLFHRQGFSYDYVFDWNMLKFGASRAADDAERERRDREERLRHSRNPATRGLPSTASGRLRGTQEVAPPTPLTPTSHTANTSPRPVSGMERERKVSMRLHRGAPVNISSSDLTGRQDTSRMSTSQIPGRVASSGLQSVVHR
T17 sequence (P42684 whole entry): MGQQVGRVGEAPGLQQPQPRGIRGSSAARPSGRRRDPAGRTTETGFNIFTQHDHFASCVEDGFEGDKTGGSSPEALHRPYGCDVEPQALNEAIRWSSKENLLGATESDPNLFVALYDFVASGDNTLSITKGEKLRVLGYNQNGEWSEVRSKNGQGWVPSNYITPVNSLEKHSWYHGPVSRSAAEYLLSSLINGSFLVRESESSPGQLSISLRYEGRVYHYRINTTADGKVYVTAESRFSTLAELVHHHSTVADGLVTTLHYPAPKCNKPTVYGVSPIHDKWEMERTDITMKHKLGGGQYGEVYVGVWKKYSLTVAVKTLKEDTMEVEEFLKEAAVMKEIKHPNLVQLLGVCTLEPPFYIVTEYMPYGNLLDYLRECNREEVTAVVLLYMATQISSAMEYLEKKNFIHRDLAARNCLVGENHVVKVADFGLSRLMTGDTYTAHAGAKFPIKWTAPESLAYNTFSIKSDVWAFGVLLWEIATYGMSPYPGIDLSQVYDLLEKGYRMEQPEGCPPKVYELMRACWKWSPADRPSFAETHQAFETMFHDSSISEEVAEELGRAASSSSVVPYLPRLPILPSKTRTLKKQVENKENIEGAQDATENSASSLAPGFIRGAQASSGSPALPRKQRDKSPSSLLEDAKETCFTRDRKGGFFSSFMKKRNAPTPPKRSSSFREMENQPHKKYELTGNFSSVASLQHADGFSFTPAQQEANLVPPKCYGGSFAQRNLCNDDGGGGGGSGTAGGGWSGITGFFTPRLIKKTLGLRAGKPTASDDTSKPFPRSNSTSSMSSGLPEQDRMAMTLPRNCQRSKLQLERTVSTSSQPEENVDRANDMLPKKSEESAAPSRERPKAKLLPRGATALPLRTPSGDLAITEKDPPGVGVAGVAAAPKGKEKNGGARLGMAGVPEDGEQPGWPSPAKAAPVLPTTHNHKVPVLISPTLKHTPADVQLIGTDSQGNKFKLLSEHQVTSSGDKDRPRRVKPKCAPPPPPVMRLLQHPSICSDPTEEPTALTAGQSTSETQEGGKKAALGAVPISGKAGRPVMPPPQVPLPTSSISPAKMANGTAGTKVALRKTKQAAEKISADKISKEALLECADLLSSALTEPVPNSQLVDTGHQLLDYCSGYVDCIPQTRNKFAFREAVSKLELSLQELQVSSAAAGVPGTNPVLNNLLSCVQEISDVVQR
T9 sequence (P06239 whole entry): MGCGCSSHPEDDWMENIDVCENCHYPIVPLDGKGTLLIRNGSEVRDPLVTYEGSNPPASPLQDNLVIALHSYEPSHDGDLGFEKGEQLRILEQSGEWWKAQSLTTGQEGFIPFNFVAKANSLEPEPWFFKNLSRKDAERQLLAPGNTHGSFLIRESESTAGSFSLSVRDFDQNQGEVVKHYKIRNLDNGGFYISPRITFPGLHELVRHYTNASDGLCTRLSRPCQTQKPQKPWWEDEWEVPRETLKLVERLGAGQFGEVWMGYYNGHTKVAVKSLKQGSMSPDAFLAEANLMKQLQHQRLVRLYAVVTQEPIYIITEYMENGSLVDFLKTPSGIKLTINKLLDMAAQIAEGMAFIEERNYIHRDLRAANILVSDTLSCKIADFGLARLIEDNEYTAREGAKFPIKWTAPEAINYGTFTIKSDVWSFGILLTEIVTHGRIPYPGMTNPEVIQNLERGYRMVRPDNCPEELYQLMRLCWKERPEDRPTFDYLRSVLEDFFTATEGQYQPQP
T3 sequence (Q8NI60 163-647): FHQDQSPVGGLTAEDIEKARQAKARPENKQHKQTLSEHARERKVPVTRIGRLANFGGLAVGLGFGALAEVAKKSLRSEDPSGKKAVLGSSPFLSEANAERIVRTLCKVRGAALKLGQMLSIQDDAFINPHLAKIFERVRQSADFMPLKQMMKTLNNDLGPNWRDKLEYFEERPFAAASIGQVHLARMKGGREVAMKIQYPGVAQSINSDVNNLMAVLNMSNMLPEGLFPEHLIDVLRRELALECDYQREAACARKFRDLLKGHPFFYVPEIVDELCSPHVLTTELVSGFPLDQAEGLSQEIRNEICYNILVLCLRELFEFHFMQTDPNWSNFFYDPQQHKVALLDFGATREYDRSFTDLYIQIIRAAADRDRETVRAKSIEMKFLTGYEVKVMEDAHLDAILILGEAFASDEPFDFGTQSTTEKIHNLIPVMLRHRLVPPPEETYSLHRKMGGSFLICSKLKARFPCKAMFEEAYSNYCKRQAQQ
T14 sequence (P11802 whole entry): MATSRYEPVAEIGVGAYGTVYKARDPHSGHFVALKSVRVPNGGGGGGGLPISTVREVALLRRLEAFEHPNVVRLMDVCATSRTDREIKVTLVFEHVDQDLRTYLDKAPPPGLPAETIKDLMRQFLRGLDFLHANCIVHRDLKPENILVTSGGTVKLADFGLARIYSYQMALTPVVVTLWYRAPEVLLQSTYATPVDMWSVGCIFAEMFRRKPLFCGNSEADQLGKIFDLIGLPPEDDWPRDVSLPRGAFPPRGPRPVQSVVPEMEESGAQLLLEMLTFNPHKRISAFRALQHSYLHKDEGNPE

Regarding `Nc1cc(C(F)(F)F)c(-c2cc(N3CCOCC3)nc(N3CCOCC3)n2)cn1` [Buparlisib], the remaining activity at 1 µM came to 100% in [1]; 92% in assay [2]; 100% in assay [3]; 93% in assay [4]; 91% in assay [5]; 100% in assay [6]. Besides, the remaining activity at 1 µM in assay [7] was 98%; in [8] it was 53%; in assay [9] it was 100%; in assay [10], 100%; in assay [11], 92%; in assay [12], 97%. In addition, the remaining activity at 1 µM stood at 100% in assay [13] (ABL1-nonphosphorylated); 86% in assay [13] (ABL1-phosphorylated); 82% in assay [14] (CDK4-cyclinD1); 91% in assay [14] (CDK4-cyclinD3); 100% in assay [15]; 100% in assay [16]. Further, in assay [17], the remaining activity at 1 µM stood at 100%. For the same molecule, the remaining activity at 10 µM in assay [1] (setting [18]) stood at 100%; in assay [2] (setting [18]) it was 98%; in assay [3] (setting [18]) it was 89%; in [4] (10 µM, read-out: STK39 (% of control at 10 µM)), 100%; in assay [5] (10 µM, read-out: PRKCQ (% of control at 10 µM)) it was 100%; in assay [6] (setting [18]), 100%. Besides, the remaining activity at 10 µM came out at 100% in [7] (setting [18]); 73% in assay [8] (setting [18]); 100% in assay [9] (setting [18]); 100% in assay [10] (10 µM, read-out: QSK (% of control at 10 µM)); 75% in assay [11] (setting [18]); 80% in assay [12] (10 µM, read-out: TRKA (% of control at 10 µM)). For the same molecule, the remaining activity at 10 µM in assay [13] (ABL1-nonphosphorylated) is 100%; in assay [13] (ABL1-phosphorylated) it was 100%; in assay [14] (CDK4-cyclinD1), 100%; in [14] (CDK4-cyclinD3) it was 100%; in assay [15] (setting [18]), 100%; in assay [16] (10 µM, read-out: ULK1 (% of control at 10 µM)), 100%. In addition, the remaining activity at 10 µM in assay [17] (setting [18]) is 100%.

On to `Cn1c(=O)n(-c2ccc(C(C)(C)C#N)cc2)c2c3cc(-c4cnc5ccccc5c4)ccc3ncc21` [Dactolisib, 2-methyl-2-[4-(3-methyl-2-oxo-8-quinolin-3-yl-2,3-dihydroimidazo[4,5-c]quinolin-1-yl)-phenyl] propionitrile], for which the remaining activity at 1 µM in [1] was determined as 96%; in [2], 94%; in [3] it was 82%; in assay [4], 100%; in assay [5] it was 85%; in [6], 100%. Further, the remaining activity at 1 µM in assay [7] amounted to 97%; in assay [8] it was 100%; in assay [9] it was 88%; in assay [10] it was 100%; in [11], 76%; in assay [13] (ABL1-nonphosphorylated), 100%. Moreover, the remaining activity at 1 µM in assay [13] (ABL1-phosphorylated) is 81%; in assay [14] (CDK4-cyclinD1), 100%; in assay [14] (CDK4-cyclinD3), 97%; in assay [15] it was 65%; in assay [16] it was 88%; in [17], 100%.

Take `COc1ncc(-c2ccc3nccc(-c4ccnnc4)c3c2)cc1NS(=O)(=O)c1ccc(F)cc1F` [Omipalisib]: the remaining activity at 1 µM in assay [1] was 100%; in assay [2] it was 88%; in [3], 87%; in [4] it was 76%; in assay [5], 100%; in [6], 97%. The remaining activity at 1 µM was found to be 100% in assay [7]; 100% in assay [8]; 100% in assay [9]; 100% in assay [10]; 100% in assay [11]; 80% in [12]. The remaining activity at 1 µM was determined as 100% in assay [13] (ABL1-nonphosphorylated); 98% in assay [13] (ABL1-phosphorylated); 100% in assay [14] (CDK4-cyclinD1); 100% in [14] (CDK4-cyclinD3); 100% in assay [15]; 99% in assay [16]. Also, the remaining activity at 1 µM in [17] worked out at 100%.

For `FC(F)c1nc2ccccc2n1-c1nc(N2CCOCC2)nc(N2CCOCC2)n1` [ZSTK474, 2-(difluoromethyl)-1-[4,6-di(4-morpholinyl)-1,3,5-triazin-2-yl]-1H-benzimidazole], the remaining activity at 1 µM is 100% in assay [1]; 89% in assay [2]; 82% in assay [3]; 95% in [4]; 98% in [5]; 94% in assay [6]. Moreover, the remaining activity at 1 µM in [7] amounted to 96%; in assay [8], 100%; in [9], 100%; in assay [10], 65%; in [11] it was 67%; in [12], 100%. Also, the remaining activity at 1 µM in assay [13] (ABL1-nonphosphorylated) came to 100%; in [13] (ABL1-phosphorylated) it was 100%; in assay [14] (CDK4-cyclinD1) it was 90%; in assay [14] (CDK4-cyclinD3), 100%; in assay [15], 100%; in assay [16], 69%. Further, the remaining activity at 1 µM in assay [17] amounted to 100%.
